Entries after “also recorded” stand apart in the source; their conditions may differ.
Legend:
Assay type in all cases: in vivo
[1] = test system: ovariectomized female C57BL/6 mice; assay: Morris water maze (spatial memory) in ovariectomized mice
Description: (§1) FIG. 5. Peripheral estrogens improve performance on the Morris water maze via ERP expressed on neurons. Healthy female C57BL/6 were tested for cognitive performance (spatial memory) using the Morris water maze, whereby mice learn to spend more time in a target quadrant (TQ) as compared to three other quadrants (OQ). […] (Bottom graph) To determine (a) whether ER beta is required for proper learning and, more specifically, (b) whether ER beta expression in neurons is required for learning, mice were generated that had ER beta conditionally knocked out using CreLox technology, with Cre driving the knock out in neurons via the neuron-specific enolase (NSE) promoter. […] (***p≤0.001, ANOVA-Sidak's posttest). […] The dashed line on the graphs indicates the time expected to be spent in a quadrant by random chance in the absence of learning (25%).
Ovariectomized mice (OVX-Placebo) display worse performance in the Morris water maze than control mice (Sham-Placebo) (FIG. 5, top panel). The administration of an estriol improves performance in ovariectomized mice (OVX-Estriol) (FIG. 5, top panel).

[2] = test system: hippocampal CA1 of ovariectomized (OVX) mice; assay: Hippocampal slice electrophysiology: long term potentiation (LTP) in CA1 after high-frequency stimulation
Description: FIGS. 1A and 1B. Estriol partially recovers long term potentiation (LTP) in the hippocampal CA1 of ovariectomized (OVX) mice. (A) LTP induced by 2×100 Hz HFS in sham-placebo treated mice (open squares, n=4) is reduced in OVX-placebo treated mice (gray circles, n=4). Estriol-treated OVX mice show improved synaptic strength (black circles, n=4). Representative traces are superimposed average fEPSPs recorded at baseline and during final 15 minutes after HFS. Estriol (5 mg) or placebo was administered as subcutaneous pellets. Calibration: 2 mV, 5 ms. (B) Summary showing fEPSP slopes during baseline (Pre) and in final 15 minutes after HFS (Post). […] Statistics RM-ANOVA, Tukey's multiple comparison test, ****p≤0.0001.
Electrophysiology to assess excitatory synaptic transmission is an accepted biomarker for cognitive function in mice, which specifically tests long term potentiation (LTP) during stimulation of the region of the brain responsible for memory, the CA1 region of the hippocampus. Hippocampal electrophysiology was examined in slices from sham surgical mice treated with placebo (SP), ovariectomized mice treated with placebo (OP), and ovariectomized mice treated with estriol (OE). […] LTP was reduced in OP mice as compared to SP mice, consistent with the known deleterious effects upon loss of peripheral estrogen on neurotransmission (FIG. 1).

NSE-Cre:ERβ^fl/fl mice = assay: Morris water maze in mice with neuronal conditional knockout of ER beta; conditions: OVX estriol-treated NSE-Cre:ERβ^fl/fl mice, n=7
Description: as §1
Thus, estrogen receptor β ligands can likely protect against neuronal defects and disability during neurodegenerative processes. This is consistent with the observation that estriol improved performance since it is a known that estriol is an agonist for various estrogen receptors including estrogen receptor β.

[3] = test system: post-menopausal female patients; assay: Randomized, double-blind, placebo-controlled human clinical trial of estriol and norethindrone in menopause; conditions: oral estriol 2, 4, 6 or 8 mg/day, 36-month treatment, women
Description: This example describes a randomized, double-blind, placebo-controlled human clinical trial for the treatment of menopause estriol and norethindrone.
Women who are taking hormone replacement therapy are excluded from the trial.
Patients are randomized to oral estriol (2 mg/day, 4 mg/day, 6 mg/day, or 8 mg/day) or to placebo for a 36-month treatment duration. Gynecologists examine the patients before, during, and after the study. Each patient is examined at three- to six-month intervals during the trial. Patients also undergo mammograms before and after the study. In addition, at baseline, 3 months, 6 months, 12 months, 18 months, 24, months, 30 months, and 36 months, the investigators measure participants' estriol levels, and assess cognitive abilities.
A total of 100 patients receive estriol, and 100 patients receive placebo. Baseline characteristics are similar in both patient groups. Participants' mean age at entry is approximately 52 years. […] To ensure breast and uterus safety, every three months the patients take norethindrone 0.7 mg once a day for 14 days.

PSD-95 = PSD-95 synaptic protein expression in dorsal hippocampus (western blot, immunofluorescence); conditions: OVX mice treated with estriol, n=2
Text: FIG. 4 consists of two panels, labeled panels (A) and (B). Estriol partially recovers synaptic levels of PSD-95 in the dorsal hippocampus following OVX. Panel A: levels of PSD-95 are decreased in the dorsal hippocampus in OVX-Placebo mice (n=2) compared to Sham-Placebo mice (n=2). […] Scale bar=20 μm, 40× objective.
Expression of PSD-95 in the CA1 stratum radiatum was shown by both immunofluorescence and by western blot (FIG. 4)

C[C@]12CC[C@@H]3c4ccc(O)cc4CC[C@H]3[C@@H]1C[C@@H](O)[C@@H]2O [estriol]
% duration in target quadrant (TQ) versus other quadrants (OQ), learning ([1]; OVX mice, 20 days of 5 mg, 90 day release estriol implants, n=7, p≤0.01): significant preference for the TQ over OQ; also recorded: ability to learn may be restored | average latency to platform during acquisition training ([1]; Sham-Placebo vs OVX-Placebo vs OVX-Estriol, 3 trials/mouse/day, RM-ANOVA p>0.05): no difference was observed | LTP versus OVX-placebo mice (in words) ([2]; OVX mice treated with estriol for 9 weeks, RM-ANOVA, Tukey, p≤0.0001): significantly improved over OP mice; also recorded: significant improvement in LTP deficit from ovariectomy | fEPSP slope in final 15 minutes after HFS (Post), Mean±SE post-HFS ([2]; OVX mice, estriol 5 mg subcutaneous pellet, 2×100 Hz HFS, n=4, sham-placebo 159.6±0.2, OVX-placebo 141.6±0.5): 150.4±0.4 | % duration in TQ versus OQ, estriol rescue of learning in ER beta neuronal knockout (NSE-Cre:ERβ^fl/fl mice): estrogen-mediated improvement is lost; also recorded: the ability of estriol to rescue learning is mediated by ER beta expression in neurons | Estriol levels in serum [3]: in early pregnancy range | PSD-95 levels in dorsal hippocampus / CA1 stratum radiatum versus OVX-placebo (PSD-95): increased expression of PSD-95; also recorded: elevated PSD-95 levels

Source: patent US9962395B2, “Compositions and methods for maintaining cognitive function” (The Regents of the University of California, priority 2014, dated 2018)
